Literature values as cited in patent US7329419B2, “Herbal supplement to support weight loss” (Herbalife International, Inc., priority 2004, dated 2008).

What was measured:
muscle tissues = settings: animal studies

| Substance | increase in metabolism (compared to control) | respiratory quotient (in vivo) | energy expenditure (metabolic rate) in muscle tissues (muscle tissues) |
| --- | --- | --- | --- |
| epigallocatechin-3-gallate [EGCG] | approximately 5% | lowers the respiratory quotient | – |
| Gingerols | – | – | increase energy expenditure |
